Test results taken from paper PMC9743092, “Membrane-Active Cyclic Amphiphilic Peptides: Broad-Spectrum Antibacterial Activity Alone and in Combination with Antibiotics” (Journal of Medicinal Chemistry, 2022).
≈ marks a conversion by molar mass, not a printed value. Where two headings read alike, the source gives them in different places.

Key:
K. pneumoniae (1188718) [1] = system: K. pneumoniae (1188718)
S. aureus (ATCC 29213) [2] = system: S. aureus (ATCC 29213)
E. coli (ATCC 25922) [3] = system: E. coli (ATCC 25922)
[4] = system: K. pneumoniae (ATCC 700603)
[5] = system: human red blood cells (hRBCs); settings: red cells of human, 2 h
Procedure: The hemolytic activity of all the cyclic peptides was determined using human red blood cells (hRBC) purchased from BioIVT, USA. […] Peptide-induced hemolysis was tested in triplicate by mixing 75 μL of the peptide solution in PBS (two-fold serial dilution) with 75 μL of a 4% (v/v) hRBC suspension in phosphate-buffered saline. The plates were incubated for 2 h at 37 °C without agitation and centrifuged at 1000g for 10 min. Aliquots (100 μL) of the supernatant were transferred to 96-well plates, where hemoglobin release was measured spectrophotometrically at 567 nm. Percent hemolysis was calculated by the following formula: [drawing 1] where A represents the absorbance of the peptide sample at 567 nm and A0 and At represent zero percent and 100% hemolysis determined in phosphate-buffered saline and 1% Triton X-100, respectively.

E. coli (1191008) [6] = system: E. coli (1191008)
[7] = system: K. pneumoniae (ATCC BAA 1705)
in vitro = settings: human, human plasma
Procedure: For accurate quantification, we employed a mass spectrometer (Q-TOF LC/MS) with a high resolving power. To remove the background interference, the data were processed by using a narrower (±0.1 m/z) extracted ion chromatogram (EIC) window. The test peptide (100 μM) was incubated in human plasma at 37 °C in a water bath. […] Plasma proteins were precipitated by the addition of cold ethanol (200 μL) and incubated for 30 min at −20 °C. […] The samples were dissolved in water and analyzed on a Delta-Pak (Waters) C18 column (100 Å, 5 μm, 3.9 mm × 150 mm) at a flow rate of 0.3 mL/min using a linear gradient of aqueous acetonitrile in the presence of formic acid (FA; 0.1%, v/v) as an ion pair reagent. Peptides were detected by recording the absorbance at 220 nm and quantified by their peak areas of EIC. The percentage digestion of the test peptides was calculated relative to the peak areas at 0 min.

[8] = system: P. aeruginosa (ATCC 27853)
[9] = system: Acinetobacter baumannii-calcoaceticus species complex (1189854)
[10] = system: P. aeruginosa (ATCC 27883); settings: 24 h, ≥99.9% kill
[11] = system: Acinetobacter baumannii-calcoaceticus species complex (1188767)
[12] = system: K. pneumoniae (ATCC BAA-1705); settings: 24 h, ≥99.9% kill
S. aureus (1193193) [13] = system: S. aureus (1193193)
P. aeruginosa (1188712) [14] = system: P. aeruginosa (1188712)
[15] = system: Acinetobacter baumannii (NCTC 13304)
E. coli (ATCC 25922) [16] = settings: 24 h, ≥99.9% kill
E. coli (ATCC 25922) [17] = assay: microbe, parasite or virus in culture; settings: Escherichia coli, ATCC25922, read-out: MIC E. coli (ATCC 25922)
S. aureus (1193193) [18] = assay: microbe, parasite or virus in culture; settings: Staphylococcus aureus, read-out: MIC S. aureus (1193193)
S. aureus (ATCC 29213) [19] = assay: microbe, parasite or virus in culture; settings: Staphylococcus aureus, ATCC29213, read-out: MIC S. aureus (ATCC 29213)
P. aeruginosa (1188712) [20] = assay: microbe, parasite or virus in culture; settings: Pseudomonas aeruginosa, read-out: MIC P. aeruginosa (1188712)
[21] = system: K. pneumoniae (ATCC 700603); assay: microbe, parasite or virus in culture; settings: Klebsiella pneumoniae, ATCC700603, read-out: MIC K. pneumoniae (ATCC 700603)
E. coli (1191008) [22] = assay: microbe, parasite or virus in culture; settings: Escherichia coli, read-out: MIC E. coli (1191008)
K. pneumoniae (1188718) [23] = assay: microbe, parasite or virus in culture; settings: Klebsiella pneumoniae, read-out: MIC K. pneumoniae (1188718)
[24] = system: P. aeruginosa (ATCC 27853); assay: microbe, parasite or virus in culture; settings: Pseudomonas aeruginosa, ATCC27853, read-out: MIC P. aeruginosa (ATCC 27853)
[25] = system: S. pneumonia (ATCC 51938); assay: microbe, parasite or virus in culture; format: cell-based; settings: Streptococcus pneumoniae, ATCC51938; Gram-positive; penicillin-, clindamycin-, cotrimoxazole-, erythromycin-resistant
Procedure: (§1) Daptomycin and polymyxin B were selected as positive controls against Gram-positive and Gram-negative bacteria, respectively.
(§2) All experiments were conducted in triplicate.

[26] = system: S. pneumonia (ATCC 49619); assay: microbe, parasite or virus in culture; format: cell-based; settings: Streptococcus pneumoniae, ATCC49619; Gram-positive
Procedure: as §1, §2

E. faecalis (ATCC 29212) = assay: microbe, parasite or virus in culture; format: cell-based; settings: Enterococcus faecalis, ATCC29212; Gram-positive
Procedure: as §1, §2

[27] = system: Bacillus subtilis (ATCC-6633); assay: microbe, parasite or virus in culture; format: cell-based; settings: ATCC6633, Gram-positive
Procedure: as §1, §2

E. faecalis (ATCC 51575) = assay: microbe, parasite or virus in culture; format: cell-based; settings: Enterococcus faecalis, ATCC51575; Gram-positive; gentamicin-, streptomycin-, vancomycin-resistant
Procedure: as §1, §2

E. faecium (ATCC 27270) = assay: microbe, parasite or virus in culture; format: cell-based; settings: Enterococcus faecium, ATCC27270; Gram-positive
Procedure: as §1, §2

[28] = system: K. pneumoniae (ATCC BAA-1705); settings: antibiotic alone or physical mixture with peptide (1:1 w/w)
E. coli (ATCC 25922) [29] = settings: antibiotic alone or physical mixture with peptide (1:1 w/w)
[30] = Calcein dye leakage assay; settings: 50 μg/mL, 100 min
[31] = system: P. aeruginosa (ATCC 27883); settings: antibiotic alone or physical mixture with peptide (1:1 w/w)
E. coli (ATCC 25922) [32] = assay: Synergistic checkerboard assay; format: cell-based; settings: Escherichia coli, ATCC25922; checkerboard; read-out: MIC antibiotic alone
Procedure: (§3) This study aimed to compare the influence of synergistic combinations on the antibacterial efficacy against the individual peptide or antibiotic. The comparison is represented by the fractional inhibitory concentration index (FICI) value, which classifies the combined impact of the two tested compounds. Selected antibiotics were tested as 11 dose points of two-fold serial dilutions across the assay plate in combination with seven points of two-fold serial dilution of the peptides down the assay plate. Two-fold serial dilutions for antibiotics and peptides were performed individually to determine the MIC value for each tested compound.
(§4) The concentrations of the peptide started from its respective MICs and were then subjected to two-fold serial dilutions (a total of 7 points). […] Antibiotics were tested as 11 points, two-fold serial dilutions across the assay plate (from 1 to 11 columns) in combination with a seven (A–G)-point and two-fold serial dilution of the peptides down the assay plate. […] In column 12 (A–G) down the assay plate, a two-fold serial dilution of the peptide alone was performed.
(§5) The following equation was applied to calculate the FICI: (A)/MICA + (B)/MICB = FICA + FICB = FICI, where (A) and (B) are the MIC of (antibiotic + [peptide]) in combination (in a single well) and MICA and MICB are the MIC of each compound individually. Based on the calculated FICI value, the interaction between combinations was categorized into four prospects synergy, partial synergy, additive or indifference, and antagonism. […] All experiments were performed in triplicate.

[33] = system: S. aureus (ATCC 29213), MRSA (ATCC BAA-1556), E. coli (ATCC 25922), E. coli (ATCC BAA-2452); assay: Serial passage resistance development study; format: cell-based, S. aureus and E. coli; settings: 18 repeated passages
Procedure: The data represent the experiments performed in triplicate.
The assays were performed in 96-well microtiter plates using 2-fold serial dilutions of all the test specimens. From an inoculated microtiter plate, an aliquot of the well with the highest concentration permitting growth was taken and diluted in fresh media to achieve the optimum bacterial load identified by comparing the turbidity with the 0.5 McFarland standard. The bacterial suspension was then further diluted and used for successive passage with a resulting final concentration of 5 × 10^5 CFU/mL. MICs were recorded, and the next inoculum was prepared from the well containing the highest concentration of the drug that allowed growth. Eighteen repeated passages were performed in an identical fashion to that described above.

[34] = Calcein dye leakage assay; settings: 50 μg/mL, 100 min; remark: listed apart in the source
[35] = system: P. aeruginosa (ATCC 27883); assay: Synergistic checkerboard assay; format: cell-based; settings: Pseudomonas aeruginosa, ATCC27883; checkerboard; read-out: MIC antibiotic alone
Procedure: as §3, §4, §5

[36] = system: K. pneumoniae (ATCC BAA-1705); assay: Synergistic checkerboard assay; settings: Klebsiella pneumoniae, ATCCBAA1705, read-out: MIC antibiotic alone
Procedure: as §3, §4, §5

MRSA (ATCC BAA-1556) = assay: microbe, parasite or virus in culture; settings: Staphylococcus aureus, ATCCBAA1556|MRSA, 24 h, read-out: MBC MRSA (ATCC BAA-1556)

For N=C(N)NCCC[C@@H]1NC(=O)[C@H](CCCNC(=N)N)NC(=O)[C@H](CCCNC(=N)N)NC(=O)[C@H](Cc2c[nH]c3ccccc23)NC(=O)[C@H](Cc2c[nH]c3ccccc23)NC(=O)[C@H](Cc2c[nH]c3ccccc23)NC(=O)[C@H](Cc2c[nH]c3ccccc23)NC(=O)[C@H](CCCNC(=N)N)NC(=O)[C@H](CCCNC(=N)N)NC1=O [5a, [R5W4]], the “MIC K. pneumoniae (1188718)” value (K. pneumoniae (1188718) [1]) was greater than 64 µg/mL, the “MIC S. aureus (ATCC 29213)” value (S. aureus (ATCC 29213) [2]) was 4 µg/mL (≈ 2.62 µM) and the “MIC E. coli (ATCC 25922)” value (E. coli (ATCC 25922) [3]) was 16 µg/mL (≈ 10.5 µM). The “MIC K. pneumoniae (ATCC 700603)” value [4] was greater than 64 µg/mL, the HC50 [5] was 340 µg/mL and the “MIC E. coli (1191008)” value (E. coli (1191008) [6]) was 16 µg/mL (≈ 10.5 µM). The “MIC K. pneumoniae (ATCC BAA 1705)” value [7] was greater than 64 µg/mL, the remaining at 0.5 h, 100 μM (in vitro) was roughly 79% and the remaining at 2 h, 100 μM (in vitro) was roughly 56%. The “MIC P. aeruginosa (ATCC 27853)” value [8] was 32 µg/mL (≈ 21 µM), the “MIC P. aeruginosa (1191191)” value (P. aeruginosa (1191191)) was 32 µg/mL (≈ 21 µM) and the “MIC Acinetobacter baumannii-calcoaceticus species complex (1189854)” value [9] was 16 µg/mL (≈ 10.5 µM). For the same compound, the “MBC P. aeruginosa (ATCC 27883)” value [10] was 32 µg/mL (≈ 21 µM), the “MIC Acinetobacter baumannii-calcoaceticus species complex (1188767)” value [11] was 32 µg/mL (≈ 21 µM) and the “MBC K. pneumoniae (ATCC BAA-1705)” value [12] was 64 µg/mL (≈ 41.9 µM). For the same compound, the “MIC S. aureus (1195201)” value (S. aureus (1195201)) was 4 µg/mL (≈ 2.62 µM), the “MIC S. aureus (1193193)” value (S. aureus (1193193) [13]) was 4 µg/mL (≈ 2.62 µM) and the “MIC P. aeruginosa (1188712)” value (P. aeruginosa (1188712) [14]) was 16 µg/mL (≈ 10.5 µM). The “MIC Acinetobacter baumannii (NCTC 13304)” value [15] was 16 µg/mL (≈ 10.5 µM), the “MBC E. coli (ATCC 25922)” value (E. coli (ATCC 25922) [16]) was 16 µg/mL (≈ 10.5 µM) and the “MIC E. coli (ATCC BAA-2452)” value (E. coli (ATCC BAA-2452)) was 16 µg/mL (≈ 10.5 µM).

With CO/N=C(\C(=O)N[C@@H]1C(=O)N2C(C(=O)[O-])=C(C[N+]3(C)CCCC3)CS[C@H]12)c1csc(N)n1 [cefepime] the MIC (E. coli (ATCC 25922) [17]) was 0.06 µg/mL (≈ 0.125 µM), the MIC (S. aureus (1193193) [18]) was 16 µg/mL (≈ 33.3 µM) and the MIC (S. aureus (ATCC 29213) [19]) was 2 µg/mL (≈ 4.16 µM). It also gave an MIC (P. aeruginosa (1188712) [20]) of 8 µg/mL (≈ 16.6 µM), an MIC [21] of 1 µg/mL (≈ 2.08 µM) and an MIC (E. coli (1191008) [22]) of 8 µg/mL (≈ 16.6 µM). The MIC (K. pneumoniae (1188718) [23]) was 8 µg/mL (≈ 16.6 µM) and the MIC [24] was 1 µg/mL (≈ 2.08 µM).

CCCCCCCCCC(=O)N[C@@H](Cc1c[nH]c2ccccc12)C(=O)N[C@H](CC(N)=O)C(=O)N[C@@H](CC(=O)O)C(=O)N[C@@H]1C(=O)NCC(=O)N[C@@H](CCCN)C(=O)N[C@@H](CC(=O)O)C(=O)N[C@H](C)C(=O)N[C@@H](CC(=O)O)C(=O)NCC(=O)N[C@H](CO)C(=O)N[C@@H]([C@H](C)CC(=O)O)C(=O)N[C@@H](CC(=O)c2ccccc2N)C(=O)O[C@@H]1C [daptomycin] showed an MIC [25] of 8 µg/mL (≈ 4.94 µM), an MIC [26] of 4 µg/mL (≈ 2.47 µM) and an MIC (E. faecalis (ATCC 29212)) of 16 µg/mL (≈ 9.87 µM). It also gave an MIC [27] of 0.5 µg/mL (≈ 0.309 µM), an MIC (E. faecalis (ATCC 51575)) of 4 µg/mL (≈ 2.47 µM) and an MIC (E. faecium (ATCC 27270)) of 4 µg/mL (≈ 2.47 µM). The “MIC K. pneumoniae (ATCC BAA-1705)” value [28] was 512 µg/mL (≈ 316 µM), the “MIC E. coli (ATCC 25922)” value (E. coli (ATCC 25922) [29]) was 256 µg/mL (≈ 158 µM) and the calcein dye release [30] was 42%. The “MIC P. aeruginosa (ATCC 27883)” value [31] was 512 µg/mL (≈ 316 µM), the MIC (E. coli (ATCC 25922) [32]) was greater than 128 µg/mL and the “change in MIC on resistance induction” value [33] was “negligible changes in the MICs”. For the same compound, the calcein dye leakage [34] was “around 7%”, the MIC [35] was 512 µg/mL and the MIC [36] was 512 µg/mL. The MBC (MRSA (ATCC BAA-1556)) was 8 µg/mL (≈ 4.94 µM).
